Results on one compound are retold here after patent US20080318954A1, “Compounds” (Cyclacel Limited, priority 2004, published 2008).

One assay deals with T1, GSK-3β (Oryctolagus cuniculus, UniProt G1T8E2).
T1 construct: isolated from a strain of E. coli that carries a clone expressing GSK-3β derived from a rabbit skeletal muscle cDNA library [34]
The assay is described as follows: GSK-3β kinase assay. Type of assay: biochemical, rabbit. How it is done: GSK-3 was obtained from New England Biolabs (UK) Ltd., Hitchin, Herts. The recombinant enzyme was isolated from a strain of E. coli that carries a clone expressing GSK-3β derived from a rabbit skeletal muscle cDNA library. Inhibition of GSK-3 function was assessed by measurement of phosphorylation of CREB phosphopeptide KRREILSRRPpSYR in the presence of test compounds. Using a 96-well assay format, GSK3 (7.5 U) was incubated for 30 min at 30° C. in a total volume of 25 μL in 20 mM MOPS pH 7.2, 25 mM β-glycerophosphate, 5 mM EGTA, 1 mM DTT, 1 mM […], 40 μM CREB peptide, 15 mM MgCl2 and 100 μM ATP (containing 0.25 μCi [γ-^32P]-ATP) in the presence of varying concentrations of test compound. The samples were transferred to 96-well p81 filter plates (Whatman Polyfiltronics, Kent, UK), and the plates were washed 4 times with 200 μL/well of 75 mM aq orthophosphoric acid. Scintillation liquid (50 μL) was added to each well, and incorporated radioactivity for each sample was determined using a scintillation counter (TopCount, Packard Instruments, Pangbourne, Berks, UK).

Assay [1] deals with glycogen synthase activity in L6 rat myocytes. The assay is described as follows: Glycogen synthase (GS) assay in L6 rat myocytes. Type of assay: cell-based. How it is done:
Rat skeletal muscle myoblasts L6/G8.C5 were seeded at 2.4×10^5 cells per 10 cm dish in DMEM 10% foetal calf serum (FCS), containing penicillin/streptomycin. When 90% confluence was reached the medium was exchanged with α MEM, supplemented with 2%
FCS and penicillin/streptomycin. Medium was refreshed every 48 hours and 4-7 days later the myocytes were formed.
Cells on 10 cm dishes (Human Embryonic Kidney (HEK) 293 cells, L6 rat myocytes, or 3T3 mouse adipocytes) were treated with different concentrations of GSK3-inhibitors or DMSO vehicle for 90 min. […] Lysates were assayed for glycogen synthase activity in buffer (50 mM Tris-HCl, pH 7.8, 20 mM EDTA, 25 mM NaF, 5 mM DTT, 1% glycogen, 0.3 mM UDP-glucose and 0.06 μCi of [^14C]-UDP-glucose in the presence of 0.1 or 10 mM glucose-6-phosphate. The reaction was carried out for 30 min at 30° C. 70 μL of the reaction mixture (total volume 90 μL) were transferred to a GFC 96-well filter plate (bottom sealed with foil), containing 140 μL 96% ethanol. The GFC plate was incubated for 1 h on ice and than washed with 66% ethanol. To each well 100 μL scintillant liquid was added and the radioactivity of the samples was measured using a scintillation counter (Topcount, HP). Data are expressed as -fold increase in glycogen synthase activity ratios over those of control samples.

In another assay the test system is PKA. The assay is described as follows: Protein kinase panel selectivity screen, PKA. It counts as biochemical. The conditions noted are these: 1 μM compound; [ATP] 5 μM. How it is done:
The names of the 29 kinases comprising the selectivity screen, as well as the ATP concentrations used in each kinase case, are given in Table 5. The kinase assays were carried out as described previously.
Compound XIV at a concentration of 1 μM was screened in the 29-kinase panel (Dundee University) and the results are shown bellow in Table 6.

Assay [2] relates to glycogen synthase activity in HEK293 cells. Kind of assay: Glycogen synthase (GS) assay in HEK293 cells. Type of assay: cell-based, human. The method, then: Cells on 10 cm dishes (Human Embryonic Kidney (HEK) 293 cells, L6 rat myocytes, or 3T3 mouse adipocytes) were treated with different concentrations of GSK3-inhibitors or DMSO vehicle for 90 min. Incubation medium was removed and cells were washed with ice-cold phosphate-buffered saline (PBS) prior to lysis on ice in 50 mM HEPES, pH 7.5, 10 mM EDTA, 100 mM NaF, 5 mM DTT, protease inhibitor cocktail (Sigma). After a freeze/thaw cycle the samples are sonicated for 10 sec and centrifuged at 15,000 g for 10 min at 4° C. Lysate supernatants were snap-frozen on liquid nitrogen and stored at −80° C. Lysates were assayed for glycogen synthase activity in buffer (50 mM Tris-HCl, pH 7.8, 20 mM EDTA, 25 mM NaF, 5 mM DTT, 1% glycogen, 0.3 mM UDP-glucose and 0.06 μCi of [^14C]-UDP-glucose in the presence of 0.1 or 10 mM glucose-6-phosphate. The reaction was carried out for 30 min at 30° C. 70 μL of the reaction mixture (total volume 90 μL) were transferred to a GFC 96-well filter plate (bottom sealed with foil), containing 140 μL 96% ethanol. The GFC plate was incubated for 1 h on ice and than washed with 66% ethanol. To each well 100 μL scintillant liquid was added and the radioactivity of the samples was measured using a scintillation counter (Topcount, HP). Data are expressed as -fold increase in glycogen synthase activity ratios over those of control samples.

The structures appear in SMILES notation.

T1 sequence (G1T8E2 1-432): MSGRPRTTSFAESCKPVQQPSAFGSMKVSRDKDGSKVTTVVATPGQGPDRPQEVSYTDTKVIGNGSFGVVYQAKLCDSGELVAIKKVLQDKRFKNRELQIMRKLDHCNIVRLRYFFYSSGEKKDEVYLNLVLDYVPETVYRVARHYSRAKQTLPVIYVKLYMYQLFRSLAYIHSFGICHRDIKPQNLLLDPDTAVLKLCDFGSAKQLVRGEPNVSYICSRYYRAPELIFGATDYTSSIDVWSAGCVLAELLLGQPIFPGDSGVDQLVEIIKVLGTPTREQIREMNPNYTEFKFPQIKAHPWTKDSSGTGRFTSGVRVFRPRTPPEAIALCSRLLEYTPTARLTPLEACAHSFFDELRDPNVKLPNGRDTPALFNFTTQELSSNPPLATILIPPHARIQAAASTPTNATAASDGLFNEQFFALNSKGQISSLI

What is called Ki is the equilibrium dissociation constant of an inhibitor or competing ligand from its target. One may read the IC50 as the point on the concentration scale where inhibition reaches its midpoint. The term EC50 denotes the concentration that produces a half-maximal response. As a reminder, the fold induction is the ratio of treated to control signal. For the compound `Clc1ccc(Nc2nccc(-c3nccs3)n2)cn1` [Compound XIV, (6-Chloro-pyridin-3-yl)-(4-thiazol-2-yl-pyrimidin-2-yl)-amine], the inhibition constant (Ki) on GSK-3β (read-out: Ki GSK3) amounted to 0.016 µM. The IC50 at GSK-3β (read-out: Kinase inhibition IC50 GSK3β) turned out to be 0.176 µM. Further, the EC50 came out at 4 ± 1.5 µM in assay [1] (Rattus norvegicus, L6 myocytes, from dose-response curves, read-out: EC50 activation of glycogen synthase) and 1.5 ± 0.6 µM in assay [2] (Homo sapiens, HEK293, from dose-response curves, read-out: EC50 activation of glycogen synthase). Besides, the “Activity of glycogen synthase (fractional velocity)” value in assay [1] (rat myocyte cells, ratio of activity at 0.1 and 10 mM glucose-6-phosphate) is “increased the activity of glycogen synthase”; in assay [2] (HEK293 cells, ratio of activity at 0.1 and 10 mM glucose-6-phosphate) it was “increased the activity of glycogen synthase”. Also, in the assay on PKA, the “% Activity PKA” value came to 76 ± 3%. Also, the “Activation of GS compared with 40 mM LiCl” value in assay [2] (HEK293 cells, 5 μM) is reported as “comparable to that induced by 40 mM LiCl”. For the same compound, the fold induction at 0.1 µM in assay [2] (Homo sapiens, HEK293 cells, 0.1 μM) came out at 0.9. For the same compound, the fold induction at 0.5 µM in assay [2] (Homo sapiens, HEK293 cells, 0.5 μM) was 1.1. For the same compound, the fold induction at 1 µM in assay [2] (Homo sapiens, HEK293 cells, 1 μM) came out at 1.6. In addition, the fold induction at 5 µM in assay [2] (Homo sapiens, HEK293 cells, 5 μM (Table 4)) is 3.3; in assay [2] (Homo sapiens, In HEK293 cells at [compound] = 5 μM (Table 2)), 3.7.
